Among the test systems are UACC-62 melanoma; SN12C renal; SF-295 CNS; CCRF-CEM leukemia; NCI-H460 lung; EKVX NSCLC.
Experiment in all cases: NCI-60 cell line screen, 48 h

Values joined by “and” are separate entries in the source; they are usually repeats but may differ in a detail not shown here. Equal values may be shown once.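 Growth conditions: 96-well plates. Treatment: test compound, 48 hours, 5 concentrations. Analysis: linear interpolation between bracketing concentrations; unreached endpoints set to highest concentration. At the GI50, growth is halved. TGI marks complete inhibition of growth.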

In the case of `CC1(C)CC(=O)C2=C(C1)NC(SSC1=C(C#N)C(c3ccccc3)C3=C(CC(C)(C)CC3=O)N1)=C(C#N)C2c1ccccc1` (stereo not given), the GI50 was 26.3 µg/mL with UACC-62 melanoma; 23.5 µg/mL in the experiment on SN12C renal; 112 µg/mL with SF-295 CNS; 24.6 µg/mL in the experiment with CCRF-CEM leukemia; 27.7 µg/mL in the experiment with NCI-H460 lung; 28.6 µg/mL with EKVX NSCLC. Further, the TGI with UACC-62 melanoma is 47.6 µg/mL; with SN12C renal it was 43.7 µg/mL; with SF-295 CNS, above 150 µg/mL; in the experiment on CCRF-CEM leukemia, above 150 µg/mL; in the experiment on NCI-H460 lung, 50.7 µg/mL; in the experiment with EKVX NSCLC, 56.2 µg/mL.

With `COc1cc(CCc2cc(NC(=O)c3ccc(N4C[C@@H](C)N[C@@H](C)C4)cc3)n[nH]2)cc(OC)c1`, the GI50 was > 10 µM and 6.82 µM in the experiment on UACC-62 melanoma; 6.39 µM and 3.31 µM in the experiment on SN12C renal; > 10 µM and 6.8 µM in the experiment on SF-295 CNS; > 10 µM and 3.69 µM in the experiment on CCRF-CEM leukemia; 6.39 µM and 4.16 µM in the experiment with NCI-H460 lung; above 10 µM in the experiment with EKVX NSCLC. Moreover, the TGI with UACC-62 melanoma was > 10 µM and 21.2 µM; in the experiment with SN12C renal, > 10 µM and 15.7 µM; in the experiment on SF-295 CNS, > 10 µM and 21.3 µM; in the experiment with CCRF-CEM leukemia, > 10 µM and 18.3 µM; in the experiment with NCI-H460 lung, > 10 µM and 14.8 µM; in the experiment on EKVX NSCLC it was above 10 µM.

Turning to `O=C(CCCc1c[nH]c2ccccc12)NC1CC(=O)c2c(Br)sc(Br)c21` (stereo not given), the GI50 in the experiment on UACC-62 melanoma was 14.2 µM; in the experiment with SN12C renal, 17.3 µM; in the experiment on SF-295 CNS it was 22.7 µM; with CCRF-CEM leukemia it was 12.9 µM; with NCI-H460 lung it was 19.2 µM; in the experiment on EKVX NSCLC, 18.9 µM. Further, the TGI in the experiment with UACC-62 melanoma was 27.9 µM; in the experiment with SN12C renal, 33 µM; in the experiment on SF-295 CNS it was 54.4 µM; in the experiment with CCRF-CEM leukemia, above 100 µM; in the experiment with NCI-H460 lung, 38.7 µM; in the experiment with EKVX NSCLC, 37.3 µM.

Consider `Cc1ccc2c(c1)NC(c1ccc(C(=O)O)cc1)c1cccn1-2` (stereo not given), for which the TGI in the experiment with UACC-62 melanoma, with SN12C renal, in the experiment on SF-295 CNS, in the experiment with CCRF-CEM leukemia, with NCI-H460 lung and with EKVX NSCLC was above 100 µM throughout.

In the case of `O/N=C1\CCc2cc(-c3nc(C4CCNCC4)[nH]c3-c3ccncc3)ccc21`, the GI50 is 0.24 µM with UACC-62 melanoma; above 25 µM in the experiment with SN12C renal; above 25 µM with SF-295 CNS; above 25 µM in the experiment with CCRF-CEM leukemia; above 25 µM with NCI-H460 lung; above 25 µM in the experiment with EKVX NSCLC. Further, the TGI in the experiment on UACC-62 melanoma, with SN12C renal, in the experiment on SF-295 CNS, with CCRF-CEM leukemia, in the experiment with NCI-H460 lung and in the experiment on EKVX NSCLC was above 25 µM in each case.

Turning to `Cc1ccc(S(=O)(=O)NC(CCC(=O)Nc2ccc(Cl)cc2)C(=O)Nc2ccc(Cl)cc2)cc1` (stereo not given), the GI50 in the experiment with UACC-62 melanoma is 0.0967 µM; in the experiment with SN12C renal it was 0.685 µM; with SF-295 CNS, 0.187 µM; in the experiment with CCRF-CEM leukemia, 0.203 µM; in the experiment on NCI-H460 lung, 0.204 µM; with EKVX NSCLC it was 2.01 µM. The TGI was 0.367 µM in the experiment with UACC-62 melanoma; 8.84 µM in the experiment with SN12C renal; 0.956 µM in the experiment on SF-295 CNS; 7.22 µM with CCRF-CEM leukemia; 7.33 µM in the experiment with NCI-H460 lung; 9.31 µM in the experiment on EKVX NSCLC.

For `Cc1ccc(S(=O)(=O)N/N=C/C(Br)=C(/Br)C(=O)O)cc1`, the TGI in the experiment with UACC-62 melanoma was found to be 22.3 µM; in the experiment with SN12C renal, 25.6 µM; in the experiment with SF-295 CNS, 36.3 µM; with CCRF-CEM leukemia it was 9.67 µM; with NCI-H460 lung it was 44.4 µM; in the experiment on EKVX NSCLC it was 34 µM.

In the case of `C[C@H]1[C@H](OC(=O)CCC(=O)O)O[C@@H]2O[C@]3(C)CC[C@H]4[C@H](C)CC[C@@H]1[C@@]24OO3`, the GI50 in the experiment on UACC-62 melanoma is 0.474 µM; with SN12C renal, 0.777 µM; in the experiment on SF-295 CNS, 0.518 µM; with CCRF-CEM leukemia, 0.452 µM; with NCI-H460 lung, 1.24 µM; with EKVX NSCLC, 0.443 µM. The TGI with UACC-62 melanoma was 27.4 µM; in the experiment on SN12C renal, above 48.9 µM; in the experiment with SF-295 CNS, above 67.3 µM; in the experiment with CCRF-CEM leukemia, 19.7 µM; in the experiment with NCI-H460 lung it was 41.6 µM; in the experiment on EKVX NSCLC, 18.3 µM.

As to `COc1ccc(N(C)c2nc(C)nc3ccccc23)cc1`, the GI50 in the experiment on UACC-62 melanoma, in the experiment with SN12C renal, in the experiment with SF-295 CNS, with CCRF-CEM leukemia, in the experiment with NCI-H460 lung and in the experiment on EKVX NSCLC was below 0.01 µM throughout. The TGI in the experiment with UACC-62 melanoma is above 49.6 µM; in the experiment on SN12C renal, above 100 µM; in the experiment with CCRF-CEM leukemia, above 100 µM; with EKVX NSCLC it was 40.8 µM.

For the compound `Nc1cccc2c1C(=O)N(C1CCC(=O)NC1=O)C2=O` (stereo not given), the GI50 in the experiment on UACC-62 melanoma, in the experiment with SN12C renal, with SF-295 CNS, in the experiment with CCRF-CEM leukemia, in the experiment on NCI-H460 lung and in the experiment with EKVX NSCLC was above 100 µM in each case. The TGI with UACC-62 melanoma, in the experiment with SN12C renal, with SF-295 CNS, in the experiment with CCRF-CEM leukemia, in the experiment on NCI-H460 lung and with EKVX NSCLC was above 100 µM each time.

As for `O=C1CC(=O)N(C2CCCCC2)C(=O)N1c1ccccc1S(=O)(=O)Oc1ccccc1`, the TGI in the experiment with UACC-62 melanoma is above 100 µM; with SN12C renal, above 100 µM; with SF-295 CNS, above 100 µM; in the experiment with CCRF-CEM leukemia it was 54.5 µM; with NCI-H460 lung it was above 100 µM; in the experiment with EKVX NSCLC, above 100 µM.

For the compound `C[C@@H](c1ccc2nccn2c1)n1nnc2ncc(-c3cnn(C)c3)nc21`, the GI50 in the experiment on UACC-62 melanoma is above 100 µM; with SN12C renal, above 100 µM; in the experiment with SF-295 CNS, 0.83 µM; with CCRF-CEM leukemia, above 100 µM; in the experiment on NCI-H460 lung, above 100 µM; in the experiment on EKVX NSCLC it was above 100 µM. The TGI in the experiment with UACC-62 melanoma, in the experiment with SN12C renal, with SF-295 CNS, in the experiment with CCRF-CEM leukemia, in the experiment on NCI-H460 lung and in the experiment on EKVX NSCLC was above 100 µM in each case.

As for `Nc1nc(N)[n+]([O-])c(N)c1NCO`, the TGI with UACC-62 melanoma, with SN12C renal, in the experiment with SF-295 CNS, in the experiment with CCRF-CEM leukemia, with NCI-H460 lung and in the experiment on EKVX NSCLC was above 100 µM each time.

The record behind these values is PubChem BioAssay (NCI).
